Test results taken from ChEMBL document CHEMBL1933004, “Novel (S)-1,2,3,4-tetrahydroisoquinoline-3-carboxylic acids: peroxisome proliferator-activated receptor γ selective agonists with protein-tyrosine phosphatase 1B inhibition” (Bioorg Med Chem, 2012).

Columns and labels:
[1] = target: T1, Peroxisome proliferator-activated receptor gamma (Homo sapiens) (UniProt P37231); assay: Transactivation of human full length PPARgamma expressed in COS1 cells co-transfected with RXRalpha after 24 hrs by luciferase reporter gene assay relative to farglitazar; format: cell-based; conditions: COS-1
T1 sequence (whole entry): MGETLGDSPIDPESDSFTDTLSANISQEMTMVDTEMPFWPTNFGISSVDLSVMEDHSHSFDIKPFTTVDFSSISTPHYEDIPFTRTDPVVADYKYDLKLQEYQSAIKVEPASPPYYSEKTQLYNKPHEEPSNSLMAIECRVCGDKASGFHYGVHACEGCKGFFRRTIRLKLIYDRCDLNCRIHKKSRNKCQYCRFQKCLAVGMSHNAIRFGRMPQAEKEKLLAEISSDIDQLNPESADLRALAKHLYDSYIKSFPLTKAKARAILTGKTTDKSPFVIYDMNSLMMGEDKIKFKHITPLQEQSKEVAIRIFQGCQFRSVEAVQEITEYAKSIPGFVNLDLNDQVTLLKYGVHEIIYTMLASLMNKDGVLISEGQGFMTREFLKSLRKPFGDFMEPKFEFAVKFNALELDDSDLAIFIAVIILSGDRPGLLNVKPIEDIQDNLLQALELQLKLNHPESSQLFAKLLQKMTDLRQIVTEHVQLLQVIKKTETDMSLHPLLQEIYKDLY

[2] = target: T2, Peroxisome proliferator-activated receptor alpha (Homo sapiens) (UniProt Q07869); assay: Transactivation of human full length PPARalpha expressed in COS1 cells co-transfected with RXRalpha after 24 hrs by luciferase reporter gene assay relative to WY14643; format: cell-based; conditions: COS-1
T2 sequence (whole entry): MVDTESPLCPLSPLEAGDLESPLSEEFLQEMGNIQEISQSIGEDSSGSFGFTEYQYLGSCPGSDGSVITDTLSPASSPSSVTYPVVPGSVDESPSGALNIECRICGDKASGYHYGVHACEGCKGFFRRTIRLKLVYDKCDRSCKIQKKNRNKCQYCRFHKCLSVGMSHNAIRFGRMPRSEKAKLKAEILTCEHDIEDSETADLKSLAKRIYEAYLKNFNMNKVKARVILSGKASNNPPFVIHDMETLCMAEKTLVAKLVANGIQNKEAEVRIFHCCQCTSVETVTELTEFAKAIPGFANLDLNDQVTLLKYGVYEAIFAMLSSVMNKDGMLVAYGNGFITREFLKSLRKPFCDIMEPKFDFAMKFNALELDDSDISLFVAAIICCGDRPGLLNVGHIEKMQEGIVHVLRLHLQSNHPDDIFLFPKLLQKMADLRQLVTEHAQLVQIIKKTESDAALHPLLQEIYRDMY

Mus musculus = assay: Hypoglycemic activity in diabetic KK-Ay mouse model assessed as decrease in glucose level at 10 mg/kg, po qd for 4 days relative to untreated control; format: functional; set-up: scale not given: the % may be the effect or the level left
[3] = target: T3, Peroxisome proliferator-activated receptor gamma (Homo sapiens, UniProt P37231); assay: Transactivation of human full length PPARgamma expressed in COS1 cells co-transfected with RXRalpha after 24 hrs by luciferase reporter gene assay; format: cell-based, COS-1
T3 sequence (P37231 whole entry): T1 sequence (whole entry)

[4] = target: T4, Tyrosine-protein phosphatase non-receptor type 1 (Homo sapiens, UniProt P18031); assay: Inhibition of PTB1B using pNPP as substrate after 30 mins
T4 sequence (P18031 whole entry): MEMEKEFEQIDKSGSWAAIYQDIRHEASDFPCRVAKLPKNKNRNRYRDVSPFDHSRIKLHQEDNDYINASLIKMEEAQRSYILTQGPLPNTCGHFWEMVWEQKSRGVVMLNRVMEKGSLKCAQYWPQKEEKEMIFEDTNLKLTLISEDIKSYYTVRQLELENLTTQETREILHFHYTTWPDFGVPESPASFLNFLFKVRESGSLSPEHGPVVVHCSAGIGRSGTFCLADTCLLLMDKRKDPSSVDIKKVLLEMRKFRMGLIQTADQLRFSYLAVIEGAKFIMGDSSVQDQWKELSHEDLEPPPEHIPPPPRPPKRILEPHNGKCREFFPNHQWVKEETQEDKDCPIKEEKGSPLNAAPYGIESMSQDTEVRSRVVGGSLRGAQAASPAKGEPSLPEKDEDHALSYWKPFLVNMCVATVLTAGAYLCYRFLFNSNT

[5] = target: T5, Peroxisome proliferator-activated receptor alpha (Homo sapiens, UniProt Q07869); assay: Transactivation of human full length PPARalpha expressed in COS1 cells co-transfected with RXRalpha after 24 hrs by luciferase reporter gene assay; format: cell-based, COS-1
T5 sequence (Q07869 whole entry): T2 sequence (whole entry)

[6] = target: T1, Peroxisome proliferator-activated receptor gamma (Homo sapiens); assay: Ratio of rosiglitazone EC50 to compound EC50 for human full length PPARgamma

SMILES | Emax [1] [%] | Emax [2] [%] | Activity (Mus musculus) [%] | EC50 [3] [nM] | IC50 [4] [nM] | EC50 [5] [nM] | Ratio EC50 [6]
C/C=C/C=C/C(=O)N1Cc2cc(OCCc3nc(/C=C/C(C)(C)C)oc3C)ccc2C[C@H]1C(=O)O.CC(C)(C)N | 97 | < 50 | 23 | 540 | 2250 |  | 
C/C=C/C=C/C(=O)N1Cc2cc(OCCc3nc(/C=C/CC(C)C)oc3C)ccc2C[C@H]1C(=O)O.CC(C)(C)N | 103 | 81 | 58 | 160 | 2000 | 240 | 
C/C=C/C=C/C(=O)N1Cc2cc(OCCc3nc(/C=C/CC(C)(C)C)oc3C)ccc2C[C@H]1C(=O)O.CC(C)(C)N | 92 | < 50 | 39 | 160 | 1950 |  | 
C/C=C/C=C/C(=O)N1Cc2cc(OCCc3nc(/C=C/C(CC)CC)oc3C)ccc2C[C@H]1C(=O)O.CC(C)(C)N | 90 | 66 | 18 | 760 | 1300 |  | 
CC(C)(C)N.CCC(O)/C=C/C(=O)N1Cc2cc(OCCc3nc(/C=C/CCC(C)C)oc3C)ccc2C[C@H]1C(=O)O (stereo partly drawn) | 104 | < 50 | 19 | 240 | 6200 |  | 
CC(C)(C)N.CCOCCC(=O)N1Cc2cc(OCCc3nc(/C=C/CCC(C)C)oc3C)ccc2C[C@H]1C(=O)O | 86 | < 50 | -13 | 70 | 3350 |  | 
C=CCCCC(=O)N1Cc2cc(OCCc3nc(/C=C/CCC(C)C)oc3C)ccc2C[C@H]1C(=O)O.CC(C)(C)N | 106 | < 50 | 22 | 50 | 1430 |  | 
C/C=C/C=C/C(=O)N1Cc2cc(OCCc3nc(CCCCC(C)C)oc3C)ccc2C[C@H]1C(=O)O.CC(C)(C)N | 89 | < 50 | 17 | 110 | 1150 |  | 
C/C=C/C=C/C(=O)N1Cc2cc(OCCc3nc(/C=C/C(C)C)oc3C)ccc2C[C@H]1C(=O)O.CC(C)(C)N | 104 | 62 | 38 | 670 | 2200 | 300 | 
CC(C)(C)N.CCC/C=C/C(=O)N1Cc2cc(OCCc3nc(/C=C/CCC(C)C)oc3C)ccc2C[C@H]1C(=O)O | 96 | < 50 | 50 | 30 | 1180 |  | 
C/C=C/C=C/C(=O)N1Cc2cc(OCCc3nc(/C(C)=C/CCC(C)C)oc3C)ccc2C[C@H]1C(=O)O.CC(C)(C)N | 119 | < 50 | 56 | 20 | 1020 |  | 4
C/C=C/C=C/C(=O)N1Cc2cc(OCCc3nc(/C=C/C(C)(C)CC)oc3C)ccc2C[C@H]1C(=O)O.CC(C)(C)N | 77 | < 50 | 16 | 760 | 1200 |  | 
CC(C)(C)N.Cc1oc(/C=C/CCC(C)C)nc1CCOc1ccc2c(c1)CN(C(=O)/C=C/C=C/CO)[C@H](C(=O)O)C2 | 61 | < 50 | 14 |  | 3200 |  | 
CC(C)(C)N.CCCCCC(=O)N1Cc2cc(OCCc3nc(/C=C/CCC(C)C)oc3C)ccc2C[C@H]1C(=O)O | 94 | < 50 | 30 | 20 | 940 |  | 
CC(C)(C)N.CCOC/C=C/C(=O)N1Cc2cc(OCCc3nc(/C=C/CCC(C)C)oc3C)ccc2C[C@H]1C(=O)O | 108 | < 50 | 3 | 90 | 3800 |  | 
C/C=C/C=C/C(=O)N1Cc2cc(OCCc3nc(/C(C)=C/CC)oc3C)ccc2C[C@H]1C(=O)O.CC(C)(C)N | 96 | < 50 | 40 | 120 | 4400 |  | 
C=CCCC(=O)N1Cc2cc(OCCc3nc(/C=C/CCC(C)C)oc3C)ccc2C[C@H]1C(=O)O.CC(C)(C)N | 105 | < 50 | 45 | 40 | 1690 |  | 
CC(C)(C)N.CCO/C=C/C(=O)N1Cc2cc(OCCc3nc(/C=C/CCC(C)C)oc3C)ccc2C[C@H]1C(=O)O | 101 | < 50 | 33 | 20 | 2550 |  | 
C/C=C/C=C/C(=O)N1Cc2cc(OCCc3nc(/C(=C/C)CC)oc3C)ccc2C[C@H]1C(=O)O.CC(C)(C)N | 91 | < 50 | 47 | 350 | 5600 |  | 
CC(C)(C)N.CC(C)=C/C=C/C(=O)N1Cc2cc(OCCc3nc(/C=C/CCC(C)C)oc3C)ccc2C[C@H]1C(=O)O | 85 | 64 | 44 | 30 | 950 | 100 | 
CC(C)(C)N.Cc1oc(/C=C/CCC(C)C)nc1CCOc1ccc2c(c1)CN(C(=O)/C=C/C1CC1)[C@H](C(=O)O)C2 | 84 | < 50 | 27 | 70 | 1050 |  | 
CC(C)(C)N.Cc1oc(/C=C/CCC(C)C)nc1CCOc1ccc2c(c1)CN(C(=O)/C=C/c1cccs1)[C@H](C(=O)O)C2 | 99 | < 50 | 45 | 40 | 1050 |  | 
CC(C)(C)N.Cc1oc(/C=C/CCC(C)C)nc1CCOc1ccc2c(c1)CN(C(=O)/C=C/c1ccco1)[C@H](C(=O)O)C2 | 102 | < 50 | 29 | 70 | 570 |  | 
C/C=C/C=C(\C)C(=O)N1Cc2cc(OCCc3nc(/C=C/CCC(C)C)oc3C)ccc2C[C@H]1C(=O)O.CC(C)(C)N | 98 | < 50 | 21 | 50 | 2030 |  | 
C/C=C/C=C/C(=O)N1Cc2cc(OCCc3nc(/C=C/C(C)CCC)oc3C)ccc2C[C@H]1C(=O)O.CC(C)(C)N (stereo partly drawn) | 82 | < 50 | 71 | 310 | 1410 |  | 
